Calls of active or inactive are those of the source. The calls are words filed in the database; no cut-off is given here.
How the values were obtained:
NCI-H358 [1] = assay: Antiproliferative activity against human NCI-H358 cells assessed as inhibition of cell proliferation incubated for 7 days by celltiter-glo 3D assay; assay type: functional, cell-based; conditions: NCI-H358, 168 h
[2] = target: T1, Protein cereblon/Son of sevenless homolog 1 (Homo sapiens, UniProt Q07889+Q96SW2); assay: PROTAC activity at CRBN/SOS1 in human NCI-H358 cells assessed as induction of SOS1 degradation incubated for 6 hrs by Western blotting analysis; assay type: cell-based; conditions: read-out: DC50
Target sequence in this assay (Q07889 whole entry): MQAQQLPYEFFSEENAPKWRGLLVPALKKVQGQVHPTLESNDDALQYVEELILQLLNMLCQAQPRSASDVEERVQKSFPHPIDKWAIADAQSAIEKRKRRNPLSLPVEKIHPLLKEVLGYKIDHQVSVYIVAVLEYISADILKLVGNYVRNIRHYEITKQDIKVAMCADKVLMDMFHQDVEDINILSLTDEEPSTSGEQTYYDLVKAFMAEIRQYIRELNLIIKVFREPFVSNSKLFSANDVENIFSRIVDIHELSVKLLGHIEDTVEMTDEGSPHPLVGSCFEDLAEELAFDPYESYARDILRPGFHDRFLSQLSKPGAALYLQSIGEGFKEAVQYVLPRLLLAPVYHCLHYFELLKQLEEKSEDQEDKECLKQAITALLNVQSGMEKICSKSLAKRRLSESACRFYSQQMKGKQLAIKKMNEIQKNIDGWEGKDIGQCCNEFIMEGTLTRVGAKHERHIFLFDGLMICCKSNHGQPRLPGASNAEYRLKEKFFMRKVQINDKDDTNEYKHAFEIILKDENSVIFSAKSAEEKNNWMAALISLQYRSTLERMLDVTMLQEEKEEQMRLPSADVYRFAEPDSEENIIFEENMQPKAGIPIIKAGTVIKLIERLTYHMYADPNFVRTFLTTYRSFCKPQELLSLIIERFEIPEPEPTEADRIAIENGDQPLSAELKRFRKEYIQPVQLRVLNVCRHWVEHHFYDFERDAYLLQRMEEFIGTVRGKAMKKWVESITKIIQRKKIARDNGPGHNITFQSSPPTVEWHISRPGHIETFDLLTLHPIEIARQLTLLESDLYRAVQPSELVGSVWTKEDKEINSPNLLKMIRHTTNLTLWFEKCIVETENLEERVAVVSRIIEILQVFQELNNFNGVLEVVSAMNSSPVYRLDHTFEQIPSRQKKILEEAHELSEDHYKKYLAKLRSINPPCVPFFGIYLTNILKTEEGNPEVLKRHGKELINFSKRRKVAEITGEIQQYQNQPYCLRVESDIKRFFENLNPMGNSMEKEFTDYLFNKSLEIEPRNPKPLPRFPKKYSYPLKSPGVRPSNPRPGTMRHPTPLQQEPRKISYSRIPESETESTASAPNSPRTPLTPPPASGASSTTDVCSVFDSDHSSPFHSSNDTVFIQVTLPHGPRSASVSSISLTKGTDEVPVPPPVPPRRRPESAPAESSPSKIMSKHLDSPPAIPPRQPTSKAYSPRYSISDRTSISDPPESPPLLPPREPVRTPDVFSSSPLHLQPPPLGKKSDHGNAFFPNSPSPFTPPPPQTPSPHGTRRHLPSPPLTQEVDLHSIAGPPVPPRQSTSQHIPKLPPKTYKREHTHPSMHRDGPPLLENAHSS
Target sequence in this assay (Q96SW2 whole entry): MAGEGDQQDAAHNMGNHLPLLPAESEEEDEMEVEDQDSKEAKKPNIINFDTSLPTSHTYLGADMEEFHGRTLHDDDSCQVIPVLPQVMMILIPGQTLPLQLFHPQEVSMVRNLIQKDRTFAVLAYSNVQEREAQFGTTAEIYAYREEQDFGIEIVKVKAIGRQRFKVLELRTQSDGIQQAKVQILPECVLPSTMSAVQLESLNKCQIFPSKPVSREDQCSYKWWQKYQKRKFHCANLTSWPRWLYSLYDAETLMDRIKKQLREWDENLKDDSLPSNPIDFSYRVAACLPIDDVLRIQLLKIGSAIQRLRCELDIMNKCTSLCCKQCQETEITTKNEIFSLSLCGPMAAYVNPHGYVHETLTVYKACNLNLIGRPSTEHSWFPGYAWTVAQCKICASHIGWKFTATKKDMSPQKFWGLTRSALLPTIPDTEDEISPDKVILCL

NCI-H358 [3] = assay: Potency index, ratio of test compound IC50 to BI3406 IC50 for antiproliferative activity against human NCI-H358 cells assessed as inhibition of cell proliferation incubated for 7 days by celltiter-glo 3D assay; assay type: functional; conditions: time 7 day
[4] = target: T1, Protein cereblon/Son of sevenless homolog 1; assay: PROTAC activity at CRBN/SOS1 in human NCI-H358 cells assessed as induction of SOS1 degradation at 0.1 to 1 uM incubated for 6 hrs by Western blotting analysis; assay type: cell-based; conditions: dose 0.1-1 µM
Target sequence in this assay (Q07889 whole entry, looked up): as the sequence (Q07889 whole entry) above
Target sequence in this assay (Q96SW2 whole entry, looked up): as the sequence (Q96SW2 whole entry) above

[5] = target: T1, Protein cereblon/Son of sevenless homolog 1; assay: PROTAC activity at CRBN/SOS1 in human NCI-H358 cells assessed as induction of SOS1 degradation at > 1 uM incubated for 6 hrs by Western blotting analysis; assay type: cell-based
Target sequence in this assay (Q07889 whole entry, looked up): as the sequence (Q07889 whole entry) above
Target sequence in this assay (Q96SW2 whole entry, looked up): as the sequence (Q96SW2 whole entry) above

NCI-H358 [6] = assay: Antiproliferative activity against human NCI-H358 cells harboring G12C mutant assessed as inhibition of cell proliferation incubated for 7 days by celltiter-glo 3D assay; assay type: functional, cell-based; conditions: NCI-H358, 168 h
[7] = Antiproliferative activity against human GP2d cells harboring G12D mutant assessed as inhibition of cell proliferation incubated for 7 days by celltiter-glo 3D assay; assay type: functional, cell-based; conditions: 168 h
NCI-H441 = assay: Antiproliferative activity against human NCI-H441 cells harboring G12V mutant assessed as inhibition of cell proliferation incubated for 7 days by celltiter-glo 3D assay; assay type: functional, cell-based; conditions: NCI-H441, 168 h
DLD-1 = assay: Antiproliferative activity against human DLD-1 cells harboring G13D mutant assessed as inhibition of cell proliferation incubated for 7 days by celltiter-glo 3D assay; assay type: functional, cell-based; conditions: DLD-1, 168 h
[8] = Tmax in BALB/c nude mouse at 10 mg/kg, ip measured upto 24 hrs by LC-MS/MS analysis; assay type: ADME, organism-based; conditions: in vivo
[9] = AUC (0 to t) in BALB/c nude mouse at 10 mg/kg, ip measured upto 24 hrs by LC-MS/MS analysis; assay type: ADME, organism-based; conditions: in vivo
[10] = Cmax in BALB/c nude mouse at 10 mg/kg, ip measured upto 24 hrs by LC-MS/MS analysis; assay type: ADME, organism-based; conditions: in vivo
[11] = AUC (0 to infinity) in BALB/c nude mouse at 10 mg/kg, ip measured upto 24 hrs by LC-MS/MS analysis; assay type: ADME, organism-based; conditions: in vivo
[12] = Half life in BALB/c nude mouse at 10 mg/kg, ip measured upto 24 hrs by LC-MS/MS analysis; assay type: ADME, organism-based; conditions: in vivo
[13] = target: Voltage-gated inwardly rectifying potassium channel KCNH2 (Homo sapiens, UniProt Q12809); assay: Inhibition of hERG at -80 mV holding potential by whole cell patch clamp recording assay; assay type: toxicity
Voltage-gated inwardly rectifying potassium channel KCNH2, sequence (Q12809 whole entry): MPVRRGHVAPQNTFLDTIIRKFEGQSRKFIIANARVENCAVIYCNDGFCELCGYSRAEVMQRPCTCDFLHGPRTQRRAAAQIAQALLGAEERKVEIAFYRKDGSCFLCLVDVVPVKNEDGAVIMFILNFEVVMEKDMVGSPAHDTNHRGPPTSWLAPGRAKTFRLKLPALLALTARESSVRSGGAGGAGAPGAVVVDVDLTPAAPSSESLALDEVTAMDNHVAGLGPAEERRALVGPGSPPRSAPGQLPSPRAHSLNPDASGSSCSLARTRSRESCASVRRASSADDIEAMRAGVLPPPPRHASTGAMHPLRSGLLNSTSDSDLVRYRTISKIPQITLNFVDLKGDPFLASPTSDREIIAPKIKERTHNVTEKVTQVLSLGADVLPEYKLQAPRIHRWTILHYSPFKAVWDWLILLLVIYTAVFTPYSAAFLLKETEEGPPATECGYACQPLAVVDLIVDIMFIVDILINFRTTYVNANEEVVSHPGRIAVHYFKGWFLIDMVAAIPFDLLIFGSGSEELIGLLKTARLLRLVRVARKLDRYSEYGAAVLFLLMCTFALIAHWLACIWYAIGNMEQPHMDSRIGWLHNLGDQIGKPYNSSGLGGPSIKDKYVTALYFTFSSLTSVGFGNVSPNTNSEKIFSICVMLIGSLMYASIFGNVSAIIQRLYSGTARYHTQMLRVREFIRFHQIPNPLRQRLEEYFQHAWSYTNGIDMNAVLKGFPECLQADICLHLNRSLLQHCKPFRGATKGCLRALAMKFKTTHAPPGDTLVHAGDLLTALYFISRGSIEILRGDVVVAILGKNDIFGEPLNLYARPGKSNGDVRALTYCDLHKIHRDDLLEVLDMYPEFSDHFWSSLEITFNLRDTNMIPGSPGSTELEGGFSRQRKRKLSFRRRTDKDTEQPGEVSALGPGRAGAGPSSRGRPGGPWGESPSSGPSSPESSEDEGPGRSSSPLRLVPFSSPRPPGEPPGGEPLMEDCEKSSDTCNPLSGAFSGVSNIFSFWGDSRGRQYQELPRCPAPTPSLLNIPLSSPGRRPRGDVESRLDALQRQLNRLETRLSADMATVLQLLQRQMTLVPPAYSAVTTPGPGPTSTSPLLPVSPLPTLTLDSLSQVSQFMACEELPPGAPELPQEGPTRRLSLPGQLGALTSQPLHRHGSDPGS

Cytochrome P450 3A4 = Cytochrome P450 3A4 (Homo sapiens, UniProt P08684); assay: Inhibition of CYP3A4 in human liver microsome preincubated with compound for 5 mins followed by NADPH addition and measured after 5 mins by LC-MS/MS analysis; assay type: ADME, microsomes
Cytochrome P450 3A4, sequence (P08684 whole entry): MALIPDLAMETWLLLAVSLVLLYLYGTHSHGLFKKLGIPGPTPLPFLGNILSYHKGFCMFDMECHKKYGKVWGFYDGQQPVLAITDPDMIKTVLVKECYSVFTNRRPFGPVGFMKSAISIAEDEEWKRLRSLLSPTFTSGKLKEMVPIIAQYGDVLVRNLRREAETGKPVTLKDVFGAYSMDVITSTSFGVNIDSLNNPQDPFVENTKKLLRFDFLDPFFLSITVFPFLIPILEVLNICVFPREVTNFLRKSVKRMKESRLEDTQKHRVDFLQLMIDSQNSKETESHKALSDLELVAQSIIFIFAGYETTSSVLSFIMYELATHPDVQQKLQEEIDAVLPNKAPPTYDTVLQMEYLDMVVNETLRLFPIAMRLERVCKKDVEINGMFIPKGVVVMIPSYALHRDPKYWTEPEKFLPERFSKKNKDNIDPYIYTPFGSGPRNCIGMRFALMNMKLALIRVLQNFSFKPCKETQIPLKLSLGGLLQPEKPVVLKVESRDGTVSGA

NCI-H358 [14] = assay: Antitumor activity against human NCI-H358 cells xenografted in BALB/c nude mouse assessed as tumor growth inhibition at 30 mg/kg, ip measured twice daily for 21 days; assay type: functional; conditions: NCI-H358, 504 h, time 21 day, read-out: TGI
[15] = Toxicity in BALB/c nude mouse xenografted with human NCI-H358 cells assessed as body weight loss at 30 mg/kg, ip measured every 3 days for 21 days; assay type: organism-based; conditions: in vivo, 504 h, time 21 day

## COc1cc2nc(C)nc(N[C@H](C)c3cc(N)cc(C(F)(F)F)c3)c2cc1OCC1(CN(C)C(=O)CCCCCCNc2cccc3c2C(=O)N(C2CCC(=O)NC2=O)C3=O)CC1 (stereo partly drawn)
NCI-H358 [1]
  IC50: 5 nM
[2]
  DC50: 13 nM
NCI-H358 [3]
  Ratio IC50: 5
[4]
  Activity: Active
[5]
  Activity: inactive
NCI-H358 [6]
  IC50: 5 nM
[7]
  IC50: 2150 nM
NCI-H441
  IC50: 43 nM
DLD-1
  IC50: 63 nM
[8]
  Tmax: 1 h
[9]
  AUC(0-t) at 24 h: 4370 ng·h/mL
[10]
  Cmax: 1870 ng/mL
[11]
  AUC(0-inf): 4380 ng·h/mL
[12]
  half-life: 4.05 h
[13]
  IC50: > 30000 nM
Cytochrome P450 3A4
  IC50: 320 nM
NCI-H358 [14]
  inhibition in vivo at 30 mg/kg: 58.8%
[15]
  Activity: Non-Toxic
